In patent US20240252670A1, “ANTIBODY DRUG CONJUGATE, PREPARATION METHOD THEREFOR AND APPLICATION THEREOF” (TSINGHUA UNIVERSITY, priority 2021, published 2024):

How the values were obtained:
[1] = tested on: B16 cells; assay: Internalization of pHrodo red labeled anti-PD-L1 THIOMAB in cancer cells (IncuCyte); assay type: cell-based, mouse; details: 24 h, pHrodo red labeled antibody, control 98.53
Description: (§1) After MC38 and B16 cells were treated for 24 hours with anti-PD-L1 THIOMAB labeled with pHrodo™ red dye, A. high-definition phase images, red fluorescence images and combined images of cells were collected by using an IncuCyte® viable cell system; B. a total red object integrated intensity histogram was obtained by analysis using IncuCyte® software, wherein the logarithm of 10 was taken for the ordinate data. Student's t test was used to compare significant differences between the groups, and p<0.0001 is represented by ****.
(§2) The pHrodo™ red dye is known to be a pH sensitive fluorescent dye, which rapidly increases in molecular fluorescence intensity when the surrounding environment becomes acidic (Lehrman et al., 2018). When the dye was internalized into the cells along with the antigen-antibody complex, the pH of the environment around the dye was reduced to acidity, thereby producing an observable fluorescence signal. This property allowed the internalization process of the antibody to be monitored by using the pHrodo™ red dye. Through the IncuCyte® viable cell analysis system, the inventors could perform image-based monitoring and quantitative analysis on the internalization process of the anti-PD-L1 antibody labeled with the pHrodo™ red dye. […]

[2] = tested on: MC38 cells; assay: as above; assay type: cell-based, mouse; details: 24 h, pHrodo red labeled antibody, control 84.88
Description: as §1, §2

[3] = tested on: wild-type DC 2.4 cells and Cd274 knockout DC 2.4 cells; assay: Internalization and selectivity in DC cells, IncuCyte intensity-time curves with FBS or mouse serum blocking; assay type: cell-based
Description: The total red object integrated intensity-time variation curves for anti-PD-L1 THIOMAB labeled with pHrodo™ red dye in the wild-type DC 2.4 cell line and the Cd274 knockout DC 2.4 cell line. […] After addition of labeled anti-PD-L1 antibody, incubation was performed for 30 minutes at 4° C. to allow complete binding of antigen and antibody. The internalization of the antibodies was then analyzed by using the IncuCyte® viable cell system. A. Cells were cultured in a culture medium containing 10% FBS. B. Cells were cultured in a culture medium containing 10% mouse serum. C. After 6 hours, high-definition phase images, red fluorescence images and combined images of DC 2.4 cells were collected by using the IncuCyte® viable cell system. Student's t test was used to compare significant differences between the groups, and p<0.0001 is represented by ****.
To verify this hypothesis, the inventors used 10% mouse serum and 10% FBS as blocking agents which were added to cell culture media in groups, respectively. Relative to FBS, murine IgG enriched in mouse serum could block Fcγ receptors on the surface of DC 2.4 more effectively, thereby inhibiting the antibody internalization process mediated by Fcγ receptors on DC cells. […]

[4] = tested on: B16 melanoma; assay: Anti-tumor activity in B16 melanoma mouse model; assay type: in vivo; details: B16 mice, i.p.; antibody drugs 150 μg, D18 25 μg per mouse; dosing to day 21
From the text: A. Treatment with ADC HE-S2, single administration of anti-PD-L1 antibody, D18, or anti-PD-L1 THIOMAB, and anti-PD-L1 antibody/D18 combined administration for inhibitory activity against mouse MC38 tumor growth. B. Whole animal survival study. The ordinate of the curve represents the percentage of tumor-bearing mice that remained alive after different days, and the abscissa thereof represents the number of experimental days. C. Treatment with ADC HE-S2, single administration of anti-PD-L1 antibody, D18, or anti-PD-L1 THIOMAB, and anti-PD-L1 antibody/D18 combined administration for inhibitory activity against mouse MC38 tumor growth. Student's t test was used to compare significant differences between the groups, and p<0.001 is represented by ***.
B16 melanoma is a tumor with low PD-L1 level and certain drug resistance to PD-1/PD-L1 blocking treatment. As a result, as expected by the inventors, the inhibitory effect of each drug on B16 melanoma was reduced relative to the MC38 tumor.
Dosage: Antibody drugs, administered 150 μg per mouse for each time, and D18, administered 25 μg per mouse for each time. - means no administration on the day. * Only mice with MC38 tumor model were allowed to be administered until the 24th day, and mice with B16 tumor model were no longer administered after the 21st day.

**Q.** What does the source list for “anti-PD-L1 THIOMAB: mutant avelumab, light chain V205C (SEQ ID NO: 9), heavy chain SEQ ID NO: 4; pHrodo red labeled in internalization tests”?
**A.** total red object integrated intensity [1]: 283613.60; total red object integrated intensity [2]: 13701.63; fluorescence intensity variation curves, wild-type vs Cd274 knockout DC 2.4 cells ([3]; 10% FBS blocking): very similar fluorescence intensity variation curves; speed of increase in total red object integrated intensity in wild-type DC cells vs Cd274 knockout DC cells ([3]; 10% mouse serum blocking, p<0.0001): significantly higher; inhibitory effect on B16 melanoma [4]: almost comparative to that of the IgG isotype antibody
